Structures can show the parent of a compound that is named as a salt.
Tests used:
Chymotrypsin = Chymotrypsin (Bos taurus, UniProt P00766); assay: Inhibition of chymotrypsin (ATE hydrolysis); assay type: biochemical; details: 15 mM ATE, 30 minutes, 37° C., pH 8.0; read-out: Concentration for 50% inhibition (IC50), chymotrypsin
Method: (§1) Inhibitory effects on the TAMe(N^α -tosyl-L-arginine methyl ester) hydrolytic activity of trypsin, plasmin, plasma kallikrein and thrombin were estimated by Hesterin's method modified by Roberts. Inhibition of the BAEe(N^α -benzoyl-L-arginine ethyl ester) hydrolytic activity of pancreas kallikrein was determined by Hesterin's method after incubation at 37° C. for 30 minutes in a 0.1M borate buffer, pH 8.0. Inhibitory effects on urokinase were determined by the chromotropic acid method after incubation of 60 iu of urokinase with 10 mM AGLMe(acetylglycyl-L-lysine methyl ester) at 37° C. for 30 minutes in a 0.06M phosphate buffer, pH 7.5, containing 0.09M NaCl. Inhibition of chymotrypsin was determined by Hesterin's method after incubation with 15 mM ATE (N^α -acetyl-L-tyrosine ethyl ester) for 30 minutes at 37° C. in a 0.1M borate buffer, pH 8.0.

Pancreas kallikrein = Pancreas kallikrein (Sus scrofa, UniProt P00752); assay: Inhibition of pancreas kallikrein (BAEe hydrolysis); assay type: biochemical; details: BAEe substrate, 37° C., 30 minutes, pH 8.0; read-out: Concentration for 50% inhibition (IC50), pancreas kallikrein
Sequence of Pancreas kallikrein (P00752 15-246 limits assumed): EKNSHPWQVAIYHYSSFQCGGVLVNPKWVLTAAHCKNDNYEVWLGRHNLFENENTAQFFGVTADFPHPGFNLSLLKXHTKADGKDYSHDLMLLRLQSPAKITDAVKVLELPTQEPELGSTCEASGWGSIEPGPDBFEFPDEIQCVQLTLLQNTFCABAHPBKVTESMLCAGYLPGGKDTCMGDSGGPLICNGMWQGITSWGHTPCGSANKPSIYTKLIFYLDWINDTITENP
Method: as §1

Urokinase = Urokinase (Homo sapiens, UniProt P00749); assay: Inhibition of urokinase (AGLMe, chromotropic acid method); assay type: biochemical; details: 60 iu urokinase, 10 mM AGLMe, 37° C., 30 minutes, pH 7.5; read-out: Concentration for 50% inhibition (IC50), urokinase
Method: as §1

[1] = test system: ileum of each sensitized guinea pig; assay: Schultz-Dale reaction; details: Cavia porcellus, read-out: Inhibition of contraction (Schultz-Dale reaction); for inhibition at 25 µg/mL: final conc. 25 μg/ml; for inhibition at 50 µg/mL: final conc. 50 μg/ml
Method: Male guinea pigs were sensitized with bovine serum albumin by Freund's complete adjuvant method. After a lapse of 10 days, the animals were sensitized once more as described above. After two more weeks, an ileum of each sensitized guinea pig was removed and used for experiment. The ileum was equipped in a magnus tube containing each test sample, and 500 μg of bovine serum albumin was added. The contraction of the ileum was determined.

guinea pigs ilea [2] = assay: Anti-acetylcholine action; parameters: species or system guinea pig; details: Cavia porcellus, read-out: Anti-acetylcholine effect inhibition of contraction; for inhibition at 25 µg/mL: final conc. 25 μg/ml; for inhibition at 50 µg/mL: final conc. 50 μg/ml
Excerpt: (§2) Anti-acetylcholine and anti-histamine effects of the present compounds were examined using guinea pigs ilea by the usual method.

guinea pigs ilea [3] = assay: Anti-histamine action; parameters: species or system guinea pig; details: Cavia porcellus, read-out: Anti-histamine effect inhibition of contraction; for inhibition at 25 µg/mL: final conc. 25 μg/ml; for inhibition at 50 µg/mL: final conc. 50 μg/ml
Excerpt: as §2

Trypsin = target: T1, Trypsin (Bos taurus, UniProt P00760); assay: Inhibition of trypsin (TAMe hydrolysis); assay type: biochemical; details: TAMe substrate; read-out: Concentration for 50% inhibition (IC50), trypsin
T1 sequence (P00760 24-246): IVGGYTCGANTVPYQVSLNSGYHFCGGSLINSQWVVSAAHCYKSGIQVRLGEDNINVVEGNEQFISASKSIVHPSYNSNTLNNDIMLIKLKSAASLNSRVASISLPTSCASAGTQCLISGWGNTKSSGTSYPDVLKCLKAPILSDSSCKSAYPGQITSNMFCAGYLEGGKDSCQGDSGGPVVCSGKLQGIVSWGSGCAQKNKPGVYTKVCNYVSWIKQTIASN
Method: as §1

Plasma kallikrein = Plasma kallikrein (Homo sapiens, UniProt P03952); assay: Inhibition of plasma kallikrein (TAMe hydrolysis); assay type: biochemical; details: TAMe substrate; read-out: Concentration for 50% inhibition (IC50), plasma kallikrein
Sequence of Plasma kallikrein (P03952 20-390 limits assumed, species assumed): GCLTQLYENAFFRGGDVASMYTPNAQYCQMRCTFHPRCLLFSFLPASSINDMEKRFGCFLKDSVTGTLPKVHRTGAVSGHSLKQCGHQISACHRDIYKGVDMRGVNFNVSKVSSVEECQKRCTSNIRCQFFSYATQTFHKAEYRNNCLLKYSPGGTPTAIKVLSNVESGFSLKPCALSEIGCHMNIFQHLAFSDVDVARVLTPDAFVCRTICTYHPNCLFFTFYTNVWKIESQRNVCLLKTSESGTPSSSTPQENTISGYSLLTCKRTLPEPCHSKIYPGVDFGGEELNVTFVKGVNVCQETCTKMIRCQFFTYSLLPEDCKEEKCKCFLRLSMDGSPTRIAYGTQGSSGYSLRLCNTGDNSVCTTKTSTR
Method: as §1

Thrombin = Thrombin (Homo sapiens, UniProt P00734); assay: Inhibition of thrombin (TAMe hydrolysis); assay type: biochemical; details: TAMe substrate; read-out: Concentration for 50% inhibition (IC50), thrombin
Mast cells [4] = assay: Effects on histamine release from mast cells induced by compound 48/80; assay type: cell-based; details: Mast cell; 10 μg/ml test compound; compound 48/80 induced; read-out: Inhibition of histamine release
Method: After incubation for 20 minutes at 37° C., the suspension was cooled to 4° C., and released histamine was determined as described by Shore et al. All samples examined were recognized to cause no disturbance in the fluorometric assay.

Plasmin = Plasmin (Homo sapiens, UniProt P00747); assay: Inhibition of plasmin (TAMe hydrolysis); assay type: biochemical; details: TAMe substrate; read-out: Concentration for 50% inhibition (IC50), plasmin
Sequence of Plasmin (P00747 97-580 limits assumed, species assumed): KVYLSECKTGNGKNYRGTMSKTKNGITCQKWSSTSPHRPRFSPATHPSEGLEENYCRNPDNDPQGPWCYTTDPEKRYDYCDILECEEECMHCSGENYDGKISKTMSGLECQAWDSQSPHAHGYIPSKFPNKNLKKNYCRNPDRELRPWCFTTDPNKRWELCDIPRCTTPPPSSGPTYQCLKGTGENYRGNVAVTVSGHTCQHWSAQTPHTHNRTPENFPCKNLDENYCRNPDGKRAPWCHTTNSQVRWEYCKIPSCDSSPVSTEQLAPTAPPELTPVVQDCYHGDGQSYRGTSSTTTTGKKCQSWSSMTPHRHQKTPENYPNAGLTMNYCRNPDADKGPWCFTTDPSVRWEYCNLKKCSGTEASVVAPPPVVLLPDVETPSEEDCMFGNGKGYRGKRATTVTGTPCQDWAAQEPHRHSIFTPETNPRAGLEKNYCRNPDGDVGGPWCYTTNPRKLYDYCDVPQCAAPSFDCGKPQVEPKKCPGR
Method: as §1

Mast cells [5] = details: Life Sciences 10, 805-812 (1971); Internal Medicine 42(6), 933 (1978); cited from earlier work

## Cc1ccc(OC(=O)[C@H]2CC[C@H](CNC(=N)N)CC2)cc1 [Compound 3, 4'-Methylphenyl trans-4-guanidinomethylcyclohexanecarboxylate hydrochloride]
Chymotrypsin
  IC50: 70 µM
Pancreas kallikrein
  IC50: 320 µM
Urokinase
  IC50: 260 µM
[1]
  inhibition at 25 µg/mL: 83.3%
  inhibition at 50 µg/mL: 100%
Guinea pigs ilea [2]
  inhibition at 25 µg/mL: 100%
  inhibition at 50 µg/mL: 100%
Guinea pigs ilea [3]
  inhibition at 25 µg/mL: 98%
  inhibition at 50 µg/mL: 100%

## N=C(N)NC[C@H]1CC[C@H](C(=O)Oc2ccccc2Cl)CC1 [Compound 5, 2'-Chlorophenyl trans-4-guanidinomethylcyclohexanecarboxylate hydrochloride]
Trypsin
  IC50: 390 µM
Chymotrypsin
  IC50: 12 µM
Pancreas kallikrein
  IC50: 90 µM
Plasma kallikrein
  IC50: 300 µM
Thrombin
  IC50: 160 µM
Urokinase
  IC50: 160 µM

## N=C(N)NC[C@H]1CC[C@H](C(=O)Oc2ccc(Br)cc2)CC1 [Compound 6, 4'-Bromophenyl trans-4-guanidinomethylcyclohexanecarboxylate hydrochloride]
Trypsin
  IC50: 260 µM
Pancreas kallikrein
  IC50: 150 µM
Thrombin
  IC50: 180 µM

## N=C(N)NC[C@H]1CC[C@H](C(=O)Oc2ccc(I)cc2)CC1 [Compound 7, 4'-Iodophenyl trans-4-guanidinomethylcyclohexanecarboxylate hydrochloride]
Mast cells [4]
  inhibition at 10 µg/mL: 18.4%

## N=C(N)NC[C@H]1CC[C@H](C(=O)Oc2ccc(Cl)cc2)CC1 [Compound 10, 4'-Chlorophenyl trans-4-guanidinomethylcyclohexanecarboxylate hydrochloride]
[1]
  inhibition at 25 µg/mL: 100%
  inhibition at 50 µg/mL: 100%
Guinea pigs ilea [2]
  inhibition at 25 µg/mL: 89.8%
  inhibition at 50 µg/mL: 100%
Guinea pigs ilea [3]
  inhibition at 25 µg/mL: 100%
  inhibition at 50 µg/mL: 100%

## Cc1ccc(C(C)C)c(OC(=O)[C@H]2CC[C@H](CNC(=N)N)CC2)c1 [Compound 13, 2'-iso-Propyl-5'-methylphenyl trans-4-guanidinomethylcyclohexanecarboxylatehydrochloride]
Plasmin
  IC50: 400 µM
Pancreas kallikrein
  IC50: 400 µM
Urokinase
  IC50: 30 µM

## Cc1cc(OC(=O)[C@H]2CC[C@H](CNC(=N)N)CC2)c(C(C)C)cc1Cl [Compound 14, 2'-iso-Propyl-4'-chloro-5'-methylphenyl trans-4-guanidinomethylcyclohexanecarboxylate hydrochloride]
Trypsin
  IC50: 190 µM
Chymotrypsin
  IC50: 100 µM
Plasmin
  IC50: 400 µM
Pancreas kallikrein
  IC50: 130 µM
Thrombin
  IC50: 240 µM
Mast cells [4]
  inhibition at 10 µg/mL: 38.8%

## N=C(N)NC[C@H]1CC[C@H](C(=O)Oc2ccc([N+](=O)[O-])cc2)CC1 [Compound 15, 4'-Nitrophenyl trans-4-guanidinomethylcyclohexanecarboxylate hydrochloride]
Trypsin
  IC50: 90 µM
Chymotrypsin
  IC50: 2.8 µM
Pancreas kallikrein
  IC50: 25 µM
Plasma kallikrein
  IC50: 300 µM
Thrombin
  IC50: 95 µM
Urokinase
  IC50: 31 µM

## N#Cc1ccccc1OC(=O)[C@H]1CC[C@H](CNC(=N)N)CC1 [Compound 21, 2'-Cyanophenyl trans-4-guanidinomethylcyclohexanecarboxylate hydrochloride]
Plasmin
  IC50: 200 µM
Pancreas kallikrein
  IC50: 30 µM
Urokinase
  IC50: 110 µM

## N=C(N)NC[C@H]1CC[C@H](C(=O)Oc2ccc3c(c2)CCC3)CC1 [Compound 23, 5'-Indanyl trans-4-guanidinomethylcyclohexanecarboxylate hydrochloride]
Mast cells [4]
  inhibition at 10 µg/mL: 12.7%

## N=C(N)NC[C@H]1CC[C@H](C(=O)Oc2ccc3ccc(=O)oc3c2)CC1 [Compound 24, 7'-(2'-Oxochromenyl)trans-4-guanidinomethylcyclohexanecarboxylate hydrochloride]
Chymotrypsin
  IC50: 6 µM
Pancreas kallikrein
  IC50: 20 µM
Thrombin
  IC50: 230 µM
Urokinase
  IC50: 50 µM

## N=C(N)NC[C@H]1CC[C@H](C(=O)Oc2ccc(Cl)c3ccccc23)CC1 [Compound 28, 4'-Chloronaphthyl trans-4-guanidinomethylcyclohexanecarboxylate hydrochloride]
Mast cells [4]
  inhibition at 10 µg/mL: 60.9%
[1]
  inhibition at 25 µg/mL: 80%
  inhibition at 50 µg/mL: 100%
Guinea pigs ilea [2]
  inhibition at 25 µg/mL: 68%
  inhibition at 50 µg/mL: 76%
Guinea pigs ilea [3]
  inhibition at 25 µg/mL: 99.7%
  inhibition at 50 µg/mL: 100%

## N=C(N)NC[C@H]1CC[C@H](C(=O)Oc2ccc3ccccc3c2[N+](=O)[O-])CC1 [Compound 29, 2'-(1'-Nitro)naphthyl trans-4-guanidinomethylcyclohexanecarboxylate hydrochloride]
Mast cells [4]
  inhibition at 10 µg/mL: 20.6%
Guinea pigs ilea [2]
  inhibition at 25 µg/mL: 52%
  inhibition at 50 µg/mL: 80%

## N=C(N)NC[C@H]1CC[C@H](C(=O)Oc2ccccc2)CC1 [Compound A, Phenyl trans4-guanidinomethylcyclohexanecarboxylate hydrochloride, reference compound]
Mast cells [4]
  inhibition at 10 µg/mL: 5%
[1]
  inhibition at 25 µg/mL: 0%
  inhibition at 50 µg/mL: 0%
Guinea pigs ilea [3]
  inhibition at 25 µg/mL: 100%
  inhibition at 50 µg/mL: 100%

## O=C(O)c1cc(=O)c2c(OCC(O)COc3cccc4oc(C(=O)O)cc(=O)c34)cccc2o1 [DSCG, Disodium cromoglycate, reference compound]
Mast cells [4]
  inhibition at 10 µg/mL: 10%
Guinea pigs ilea [3]
  inhibition at 25 µg/mL: 0%
  inhibition at 50 µg/mL: 0%
Mast cells [5]
  inhibitory effects on histamine release from mast cells: has inhibitory effects on histamine release from mast cells
